In PubChem BioAssay (NCI):
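1) Cells in 96-well plates. 2) Compound, 48 h, 5 concentrations. 3) Linear interpolation between surrounding doses. 4) Unreached endpoint = highest concentration. GI50: concentration for 50% inhibition of growth. TGI marks complete inhibition of growth.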

Tests used:
Experiment in all cases: inhibition of tumour cell growth, NCI panel, 48 h
K-562 leukemia = test system: K-562 leukemia
EKVX NSCLC = test system: EKVX NSCLC
CCRF-CEM leukemia = test system: CCRF-CEM leukemia
KM12 colon = test system: KM12 colon
IGROV1 ovarian = test system: IGROV1 ovarian
OVCAR-4 ovarian = test system: OVCAR-4 ovarian
HCT-116 colon = test system: HCT-116 colon
OVCAR-5 ovarian = test system: OVCAR-5 ovarian
SF-295 CNS = test system: SF-295 CNS
TK-10 renal = test system: TK-10 renal

## FC(F)(F)C12C34C=CC5(CCC6(C=CC1(CC3)O6)C52C(F)(F)F)O4 (stereo not given)
K-562 leukemia
  TGI: > 100 µM
EKVX NSCLC
  TGI: > 100 µM
CCRF-CEM leukemia
  TGI: > 100 µM
KM12 colon
  TGI: > 100 µM
IGROV1 ovarian
  TGI: > 100 µM
OVCAR-4 ovarian
  TGI: > 100 µM
HCT-116 colon
  TGI: > 100 µM
OVCAR-5 ovarian
  TGI: > 100 µM
SF-295 CNS
  TGI: > 100 µM
TK-10 renal
  TGI: > 100 µM

## Cc1cccc(C(C)(C)C)c1NC(=O)C(=O)C(c1cnc2ccccc2n1)[N+](=O)[O-] (stereo not given)
K-562 leukemia
  TGI: > 100 µM
EKVX NSCLC
  TGI: > 100 µM
CCRF-CEM leukemia
  TGI: > 100 µM
KM12 colon
  TGI: > 100 µM
IGROV1 ovarian
  TGI: > 100 µM
OVCAR-4 ovarian
  TGI: > 100 µM
HCT-116 colon
  TGI: > 100 µM
OVCAR-5 ovarian
  TGI: > 100 µM
SF-295 CNS
  TGI: > 100 µM
TK-10 renal
  TGI: > 100 µM

## CCN1C(=O)N(CC)C2C1NN=c1s/c(=C3\C(=O)N(C)c4ccccc43)c(=O)n12 (stereo not given)
K-562 leukemia
  GI50: 0.352 µM
  TGI: > 100 µM
EKVX NSCLC
  GI50: 3.25 µM
  TGI: > 100 µM
CCRF-CEM leukemia
  GI50: 1.37 µM
  TGI: > 100 µM
KM12 colon
  GI50: 0.647 µM
  TGI: > 100 µM
IGROV1 ovarian
  GI50: 0.891 µM
  TGI: 43.7 µM
OVCAR-4 ovarian
  GI50: 8.51 µM
  TGI: > 100 µM
HCT-116 colon
  GI50: 1.1 µM
  TGI: > 43.6 µM
OVCAR-5 ovarian
  GI50: 3.3 µM
  TGI: > 100 µM
SF-295 CNS
  GI50: 0.999 µM
  TGI: > 28.8 µM
TK-10 renal
  GI50: 11.2 µM
  TGI: > 74.3 µM

## NCc1ccc(-n2c(-c3nonc3N)nc3cnccc32)cc1
K-562 leukemia
  GI50: > 25 µM
  TGI: > 25 µM
EKVX NSCLC
  GI50: > 25 µM
  TGI: > 25 µM
CCRF-CEM leukemia
  GI50: 6.26 µM
  TGI: > 25 µM
KM12 colon
  GI50: 8.79 µM
  TGI: > 25 µM
IGROV1 ovarian
  GI50: > 25 µM
  TGI: > 25 µM
OVCAR-4 ovarian
  GI50: > 25 µM
  TGI: > 25 µM
HCT-116 colon
  GI50: 2.69 µM
  TGI: > 25 µM
OVCAR-5 ovarian
  GI50: 11.7 µM
  TGI: > 25 µM
SF-295 CNS
  GI50: 16 µM
  TGI: > 25 µM
TK-10 renal
  GI50: 0.385 µM
  TGI: > 25 µM

## CCSc1nc(COC(=O)NC)c(COC(=O)NC)n1C
K-562 leukemia
  TGI: > 68.1 µM
EKVX NSCLC
  TGI: > 100 µM
CCRF-CEM leukemia
  TGI: > 100 µM
KM12 colon
  TGI: > 100 µM
IGROV1 ovarian
  TGI: > 93.1 µM
OVCAR-4 ovarian
  TGI: > 84.7 µM
HCT-116 colon
  TGI: > 100 µM
OVCAR-5 ovarian
  TGI: > 100 µM
SF-295 CNS
  TGI: > 100 µM
TK-10 renal
  TGI: > 100 µM

## CC(=O)NC(CCCN(Cc1ccccc1)C(=O)N(CCCl)N=O)C(=O)NCc1ccccc1 (stereo not given)
K-562 leukemia
  TGI: > 100 µM
EKVX NSCLC
  TGI: > 100 µM
CCRF-CEM leukemia
  TGI: > 100 µM
KM12 colon
  TGI: > 100 µM
IGROV1 ovarian
  TGI: > 100 µM
OVCAR-4 ovarian
  TGI: > 100 µM
HCT-116 colon
  TGI: > 100 µM
OVCAR-5 ovarian
  TGI: > 100 µM
SF-295 CNS
  TGI: > 100 µM
TK-10 renal
  TGI: > 100 µM

## CCOC(=O)N1CCN(S(=O)(=O)c2oc(-c3ccc(Cl)cc3)nc2C#N)CC1
K-562 leukemia
  GI50: 1.59 µM
  TGI: > 100 µM
EKVX NSCLC
  GI50: 9.71 µM
  TGI: 27.2 µM
CCRF-CEM leukemia
  GI50: 0.36 µM
  TGI: 5.13 µM
KM12 colon
  GI50: 10.5 µM
  TGI: 35.6 µM
IGROV1 ovarian
  GI50: 1.75 µM
  TGI: 3.47 µM
OVCAR-4 ovarian
  GI50: 2.36 µM
  TGI: 5.5 µM
HCT-116 colon
  GI50: 1.74 µM
  TGI: 3.7 µM
OVCAR-5 ovarian
  GI50: 3.92 µM
  TGI: 13.3 µM
SF-295 CNS
  GI50: 28.2 µM
  TGI: > 100 µM
TK-10 renal
  GI50: 1.8 µM
  TGI: 3.29 µM

## C=CCc1ccc(O)c(-c2cc(C3Oc4c(-c5cc(CC=C)ccc5O)cc(O)cc4[C@@H]3CO)ccc2O)c1 (stereo not given in full)
K-562 leukemia
  TGI: 34.1 µM
EKVX NSCLC
  TGI: > 100 µM
CCRF-CEM leukemia
  TGI: 43.7 µM
KM12 colon
  TGI: 85.7 µM
IGROV1 ovarian
  TGI: 51.6 µM
OVCAR-4 ovarian
  TGI: > 100 µM
HCT-116 colon
  TGI: 43.3 µM
OVCAR-5 ovarian
  TGI: > 100 µM
SF-295 CNS
  TGI: > 100 µM
TK-10 renal
  TGI: > 100 µM

## Cc1ncc([N+](=O)[O-])n1CCNC(=O)CCCn1cnc([N+](=O)[O-])n1
K-562 leukemia
  TGI: > 100 µM
EKVX NSCLC
  TGI: > 31.6 µM
CCRF-CEM leukemia
  TGI: > 100 µM
KM12 colon
  TGI: > 100 µM
IGROV1 ovarian
  TGI: > 100 µM
OVCAR-4 ovarian
  TGI: > 100 µM
HCT-116 colon
  TGI: > 100 µM
OVCAR-5 ovarian
  TGI: > 100 µM
SF-295 CNS
  TGI: > 100 µM
TK-10 renal
  TGI: > 69.5 µM

## COc1ccc2c(c1)nc(N)c1c3cccnc3cn21
K-562 leukemia
  GI50: 0.038 µM
  TGI: 24.9 µM
EKVX NSCLC
  GI50: 2.91 µM
  TGI: > 100 µM
CCRF-CEM leukemia
  GI50: 0.039 µM
  TGI: > 100 µM
KM12 colon
  GI50: 0.0473 µM
  TGI: > 41.2 µM
IGROV1 ovarian
  GI50: 0.106 µM
  TGI: 37.1 µM
OVCAR-4 ovarian
  GI50: 0.294 µM
  TGI: > 100 µM
HCT-116 colon
  GI50: 0.0471 µM
  TGI: > 36.7 µM
OVCAR-5 ovarian
  GI50: 0.438 µM
  TGI: > 100 µM
SF-295 CNS
  GI50: 0.0365 µM
  TGI: 1.13 µM
TK-10 renal
  GI50: 0.252 µM
  TGI: 19.9 µM

## O=[N+]([O-])c1ccc(CS(=O)Cc2ccccc2)cc1 (stereo not given)
K-562 leukemia
  TGI: > 100 µM
EKVX NSCLC
  TGI: > 100 µM
CCRF-CEM leukemia
  TGI: > 100 µM
KM12 colon
  TGI: > 100 µM
IGROV1 ovarian
  TGI: > 100 µM
OVCAR-4 ovarian
  TGI: > 100 µM
HCT-116 colon
  TGI: > 100 µM
OVCAR-5 ovarian
  TGI: > 100 µM
SF-295 CNS
  TGI: > 100 µM
TK-10 renal
  TGI: > 100 µM

## C=C(C)CCC(C)N1CCC(N2CCC(C(=O)NCCc3ccccc3)CC2)CC1 (stereo not given)
K-562 leukemia
  GI50: 9.9 µM
  TGI: 34.2 µM
EKVX NSCLC
  GI50: 9.27 µM
  TGI: > 100 µM
CCRF-CEM leukemia
  GI50: 19.9 µM
  TGI: > 100 µM
KM12 colon
  GI50: 54.6 µM
  TGI: > 100 µM
IGROV1 ovarian
  GI50: > 100 µM
  TGI: > 100 µM
OVCAR-4 ovarian
  GI50: 5.97 µM
  TGI: 73 µM
HCT-116 colon
  GI50: 16.8 µM
  TGI: > 100 µM
OVCAR-5 ovarian
  GI50: 78.9 µM
  TGI: > 100 µM
SF-295 CNS
  GI50: 11.9 µM
  TGI: 26.1 µM
TK-10 renal
  GI50: 18.5 µM
  TGI: 69.3 µM

## C=C[C@]1(C)C=C2C(=O)[C@@]3(O)OC[C@@]4(CCCC(C)(C)C43O)C2(O)C(O)C1 (stereo not given in full)
K-562 leukemia
  GI50: 2.8 µM
  TGI: > 27.9 µM
EKVX NSCLC
  GI50: 15 µM
  TGI: 31.3 µM
CCRF-CEM leukemia
  GI50: 1.83 µM
  TGI: 16.5 µM
KM12 colon
  GI50: 13.1 µM
  TGI: 26.8 µM
IGROV1 ovarian
  GI50: 1.55 µM
  TGI: 6.36 µM
OVCAR-4 ovarian
  GI50: 2.32 µM
  TGI: 5.47 µM
HCT-116 colon
  GI50: 1.18 µM
  TGI: 2.46 µM
OVCAR-5 ovarian
  GI50: 12.1 µM
  TGI: 25.9 µM
SF-295 CNS
  GI50: 21.6 µM
  TGI: > 70.5 µM
TK-10 renal
  GI50: 1.56 µM
  TGI: 3.03 µM

## CSc1nc(-c2ccccc2)c2c(n1)-c1ccccc1CC2
K-562 leukemia
  TGI: > 100 µM
EKVX NSCLC
  TGI: > 100 µM
CCRF-CEM leukemia
  TGI: > 100 µM
KM12 colon
  TGI: > 100 µM
IGROV1 ovarian
  TGI: > 100 µM
OVCAR-4 ovarian
  TGI: > 100 µM
HCT-116 colon
  TGI: > 100 µM
OVCAR-5 ovarian
  TGI: > 100 µM
SF-295 CNS
  TGI: > 100 µM
TK-10 renal
  TGI: > 100 µM
